Target: EXON 20 Insertion(NPG) Ba/F3 Cell (Homo sapiens, UniProt P00533, INS772GNP, cells depend on it)
Test: Measurement of cancer cell growth inhibitory effect (MTT assay)
Format: cell-based, Murine
Conditions: Ba/F3 cells expressing EGFR with NPG added at D770_N771, 72 hours treatment, read at 595 nm, read-out: EXON 20 Insertion(NPG) Ba/F3 Cell(IC50)
Source text: Since there is no commercially available lung cancer cell line with EGFR insertion mutation, a method of inserting 3 to 4 amino acids at each site using site direct mutagenesis in a wild type EGFR expression vector was attempted. In the present invention, first, a vector with three amino acids of NPG added to the D770_N771 site with the highest frequency was used, and Ba/F3 cell line was used for expression of these genes.
When the oncogenic mutant EGFR is expressed, dependence on the mutant EGFR for cell growth and apoptosis occurs without IL-3. Therefore, substances that show effective inhibition of mutant EGFR suppress cell growth and induce apoptosis, so the anticancer effect of cells was analyzed through MTT assay.
1×10^4 cells of the previously constructed stable cells were put into a 96 well plate and incubated overnight, and then the compound of Example was dose dependently treated. After 72 hours, MTT reagent was added, and after 3 hours stop buffer (10% SDS) was added. After 24 hours of incubation, the results were analyzed by reading at 595 nm. […] As a control drug, Mobocertinib was used.

Sequence of EXON 20 Insertion(NPG) Ba/F3 Cell (P00533 with tags, fused parts or gaps INS772GNP): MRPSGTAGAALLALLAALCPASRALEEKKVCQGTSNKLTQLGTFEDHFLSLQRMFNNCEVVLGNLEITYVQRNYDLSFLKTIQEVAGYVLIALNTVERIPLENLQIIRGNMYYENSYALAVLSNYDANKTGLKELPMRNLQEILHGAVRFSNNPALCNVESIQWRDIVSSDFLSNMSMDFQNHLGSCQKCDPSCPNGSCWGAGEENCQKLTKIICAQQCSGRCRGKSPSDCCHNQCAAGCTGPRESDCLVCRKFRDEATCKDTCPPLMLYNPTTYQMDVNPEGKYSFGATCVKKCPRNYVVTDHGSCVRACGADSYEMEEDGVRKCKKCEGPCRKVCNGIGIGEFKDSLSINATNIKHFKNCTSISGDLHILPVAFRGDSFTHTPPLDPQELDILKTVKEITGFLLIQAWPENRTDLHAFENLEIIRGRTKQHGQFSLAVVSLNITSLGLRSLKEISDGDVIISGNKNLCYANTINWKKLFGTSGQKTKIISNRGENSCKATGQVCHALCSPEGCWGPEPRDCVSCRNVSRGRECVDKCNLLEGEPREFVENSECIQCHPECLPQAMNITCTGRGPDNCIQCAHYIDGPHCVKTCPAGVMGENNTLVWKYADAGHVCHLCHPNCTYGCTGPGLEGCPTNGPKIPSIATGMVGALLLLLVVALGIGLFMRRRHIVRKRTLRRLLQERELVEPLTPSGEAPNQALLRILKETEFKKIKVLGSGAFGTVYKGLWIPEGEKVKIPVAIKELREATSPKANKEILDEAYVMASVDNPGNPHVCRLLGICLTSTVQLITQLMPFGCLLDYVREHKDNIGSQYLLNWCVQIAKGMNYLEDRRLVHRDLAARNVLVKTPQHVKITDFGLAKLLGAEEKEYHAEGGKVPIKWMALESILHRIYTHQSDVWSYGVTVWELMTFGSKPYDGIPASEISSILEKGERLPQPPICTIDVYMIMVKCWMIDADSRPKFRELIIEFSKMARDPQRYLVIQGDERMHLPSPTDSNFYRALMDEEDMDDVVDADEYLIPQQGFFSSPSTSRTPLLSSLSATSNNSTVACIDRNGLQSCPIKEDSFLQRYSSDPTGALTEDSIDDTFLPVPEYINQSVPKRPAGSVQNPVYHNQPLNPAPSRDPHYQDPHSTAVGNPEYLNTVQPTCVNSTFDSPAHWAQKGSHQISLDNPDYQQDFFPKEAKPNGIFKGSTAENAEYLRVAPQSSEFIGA

| SMILES | GI50 |
| --- | --- |
| C=CC(=O)Nc1cc(Nc2ncc(C(=O)OC(C)C)c(Nc3ccccc3-c3ccn(C)n3)n2)c(OC)cc1N1CCN(C)CC1 [Example 23, Isopropyl 2-((5-acrylamido-2-methoxy-4-(4-methylpiperizin-l-yl)phenyl)amino)-4-((2-(1-methyl-1H-pyrazol-3-yl)phenyl)amino)pyrimidin-5-carboxylate] | 0.025 to 0.05 µM |
| C=CC(=O)Nc1cc(Nc2cc(Nc3ccccc3-c3ccn(C)n3)ncn2)c(OC)cc1N(C)[C@@H]1CCN(C)C1 [Example 8, (R)-N-(4-methoxy-2-(methyl(1-methylpyrrolidin-3-yl)amino)-5-((6-((2-(1-methyl-1H-pyrazol-3-yl)phenyl)amino)pyrimidin-4-yl)amino)phenyl)acrylamide] | 0.025 to 0.05 µM |
| C=CC(=O)Nc1cc(Nc2ncc(Cl)c(Nc3ccccc3-c3ccn(C)n3)n2)c(OC)cc1N(C)[C@H]1CCN(C)C1 [Example 36, (S)-N-(5-((5-chloro-4-((2-(1-methyl-1H-pyrazol-3-yl)phenyl)amino)pyrimidin-2-yl)amino)-4-methoxy-2-(methyl(1-methylpyrrolidin-3-yl)amino)phenyl)acrylamide] | 0.025 to 0.05 µM |
| C=CC(=O)Nc1cc(Nc2cc(Nc3ccccc3-n3cccn3)ncn2)c(OC)cc1N(C)CCN(CC)CC [Example 37, N-(5-((6-((2-(1H-pyrazol-1-yl)phenyl)amino)pyrimidin-4-yl)amino)-2-((2-(diethylamino)ethyl)(methyl)amino)-4-methoxyphenyl)acrylamide] | 0.025 to 0.05 µM |
| C=CC(=O)Nc1cc(Nc2ncc(C(F)(F)F)c(Nc3ccccc3-c3ccn(C)n3)n2)c(OC)cc1N(C)CCN(C)C [Example 15, N-(2-((2-(dimethylamino)ethyl)(methyl)amino)-4-methoxy-5-((4-((2-(1-methyl-1H-pyrazol-3-yl)phenyl)amino)-5-(trifluoromethyl)pyrimidin-2-yl)amino)phenyl)acrylamide] | 0.025 to 0.05 µM |
| C=CC(=O)Nc1cc(Nc2ncc(Cl)c(Nc3ccccc3-c3ccn(C)n3)n2)c(OC)cc1N(C)[C@@H]1CCN(C)C1 [Example 35, (R)-N-(5-((5-chloro-4-((2-(1-methyl-1H-pyrazol-3-yl)phenyl)amino)pyrimidin-2-yl)amino)-4-methoxy-2-(methyl(1-methylpyrrolidin-3-yl)amino)phenyl)acrylamide] | 0.025 to 0.05 µM |
| C=CC(=O)Nc1cc(Nc2cc(Nc3ccccc3-c3ccn(C)n3)ncn2)c(OC)cc1N1CC[C@@H](N(C)C)C1 [Example 7, (R)-N-(2-(3-(dimethylamino)pyrrolidin-1-yl)-4-methoxy-5-((6-((2-(1-methyl-1H-pyrazol-3-yl)phenyl)amino)pyrimidin-4-yl)amino)phenyl)acrylamide] | 0.025 to 0.05 µM |
| C=CC(=O)Nc1cc(Nc2ncc(Cl)c(Nc3ccccc3-n3cccn3)n2)c(OC)cc1N(C)CCN(C)C [Example 30, N-(5-((4-((2-(1H-pyrazol-1-yl)phenyl)amino)-5-chloropyrimidin-2-yl)amino)-2-((2-(dimethylamino)ethyl)(methyl)amino)-4-methoxyphenyl)acrylamide] | < 0.025 µM |

Further lines, results first:

| GI50 | SMILES |
| --- | --- |
| 0.025 to 0.05 µM | C=CC(=O)Nc1cc(Nc2ncc(C(=O)OC(C)C)c(Nc3ccccc3-c3ccn(C)n3)n2)c(OC)cc1N1CC[C@H](N(C)C)C1 [Example 25, Isopropyl(S)-2-((5-acrylamido-4-(3-(dimethylamino)pyrrolidin-1-yl)-2-methoxyphenyl)amino)-4-((2-(1-methyl-1H-pyrazol-3-yl)phenyl)amino)pyrimidin-5-carboxylate] |
| 0.025 to 0.05 µM | C=CC(=O)Nc1cc(Nc2ncc(Cl)c(Nc3ccccc3-c3ccn(C)n3)n2)c(OC)cc1N1CCN(C)CC1 [Example 31, N-(5-((5-chloro-4-((2-(1-methyl-1H-pyrazol-3-yl)phenyl)amino)pyrimidin-2-yl)amino)-4-methoxy-2-(4-methylpiperizin-1-yl)phenyl)acrylamide] |
| 0.025 to 0.05 µM | C=CC(=O)Nc1cc(Nc2ncc(C(=O)OC)c(Nc3ccccc3-n3cccn3)n2)c(OC)cc1N(C)CCN(C)C [Example 19, methyl 4-((2-(1H-pyrazol-1-yl)phenyl)amino)-2-((5-acrylamido-4-((2-(dimethylamino)ethyl)(methyl)amino)-2-methoxyphenyl)amino)pyrimidin-5-carboxylate] |
| 0.025 to 0.05 µM | C=CC(=O)Nc1cc(Nc2cc(Nc3ccccc3-c3ccn(C)n3)ncn2)c(OC)cc1N1CCOCC1 [Example 5, N-(4-methoxy-5-((6-((2-(1-methyl-1H-pyrazol-3-yl)phenyl)amino)pyrimidin-4-yl)amino)-2-morpholinophenyl)acrylamide] |
| 0.025 to 0.05 µM | C=CC(=O)Nc1cc(Nc2cc(Nc3ccccc3-c3ccn(C)n3)ncn2)c(OC2CC2)cc1N(C)CCN(C)C [Example 12, N-(4-cyclopropoxy-2-((2-(dimethylamino)ethyl)(methyl)amino)-5-((6-((2-(1-methyl-1H-pyrazol-3-yl)phenyl)amino)pyrimidin-4-yl)amino)phenyl)acrylamide] |
| 0.025 to 0.05 µM | C=CC(=O)Nc1cc(Nc2ncc(Cl)c(Nc3ccccc3-c3ccn(C)n3)n2)c(OC)cc1N1CC[C@@H](N(C)C)C1 [Example 34, (R)-N-(5-((5-chloro-4-((2-(1-methyl-1H-pyrazol-3-yl)phenyl)amino)pyrimidin-2-yl)amino)-2-(3-(dimethylamino)pyrrolidin-1-yl)-4-methoxyphenyl)acrylamide] |

Reference: US20240166663A1, “NOVEL PYRIMIDINE DERIVATIVE SHOWING INHIBITION EFFECT ON GROWTH OF CANCER CELLS” (ONCOBIX CO., LTD., priority 2021, published 2024)
